# In patent US9763987B2, “Cyclic di-AMP induction of type I interferon” (priority 2010, dated 2017):
# Key:
# [1] = tested on: WT and mutant BMMs; assay: IFN-β induction in various host strains (WT and knockout BMMs), ISRE L929 bioassay; format: cell-based, mouse; conditions: 3 μM with digitonin, 6 hours; WT vs myd88-trif−/−, irf3−/−, mays−/− macrophages; parallel to L. monocytogenes (IRF3 and STING dependent, MyD88/Trif and MAVS independent); FIG. 9
# Protocol: BMMs were differentiated as described previously (S3). For mays−/−macrophages, heterozygous mice were used as a control. WT and mutant BMMs were plated in 24-well plates ([…]) the evening prior to use. For infections, 2×10^6 bacteria from 30° C. overnight cultures were washed with PBS and added to each well containing 500 μL of BMM media. For c-di-AMP treatment, synthetic standard was dissolved in digitonin solution to a final concentration of 3 μM. Media was aspirated from cells and replaced with 200 μL of c-di-AMP/digitonin mix. From this point on infections and c-di-AMP samples were treated the same. At 30 minutes wells were aspirated and replaced with fresh BMM media. At 1 hour post infection gentamycin (50 μg/mL) was added. For LPS treatment, 100 ng of sonicated LPS stock solution (50 μg/mL) was added to appropriate wells containing 500 μL of BMM media. Supernatants from all wells were collected and analyzed by ISRE L929 bioassay for IFN-β activity at 6 hours. • 10. Supporting References • S1. D. A. Portnoy, P. S. Jacks, D. J. Hinrichs, Role of hemolysin for the intracellular growth of Listeria monocytogenes. J. Exp. Med. 167, 1459 (1988). • S2. L. Phan-Thanh, T. Gormon, A chemically defined minimal medium for the optimal culture of Listeria. Int. J. Food Microbiol. 35, 91 (1997). • S3. […]
# [2] = tested on: bone marrow derived macrophages (BMM); assay: IFN-β bio-assay: samples delivered to BMM cytosol by digitonin, type I IFN read with ISRE-L929 luciferase reporter cells; format: cell-based, mouse; conditions: FIG. 3d
# Protocol: Mouse bone marrow from 6-8 week old female mice was differentiated to bone marrow derived macrophages (BMM) as described previously (S3). Interferon responsive ISRE-L929 cells were cultured in ISRE media (DMEM, 2 mM glutamine, 1 mM pyruvate, 10% heat inactivated FBS, and penicillin-streptomycin). Induction of type-I interferon was assessed using BMMs plated in 96-well flat bottom tissue culture treated plates (10^5 cells/well) a minimum of 12 hours prior to use in BMM media (DMEM, 2 mM glutamine, 1 mM pyruvate, 10% CSF from 3T3 cells, and 20% heat inactivated FBS). Samples (10 μL) of L. monocytogenes supernatants, HPLC fractions, and cyclic di-AMP standard (Biolog Life Sciences Institute, […]) were mixed with a 10× volume of digitonin permeabilization solution (50 mM HEPES pH 7.0, 100 mM KCl, 3 mM MgCl2, 0.1 mM DTT, 85 mM Sucrose, 0.2% BSA, 1 mM ATP, 0.1 mM GTP, ±10 μg/mL Digitonin) (S4). Media was aspirated from the cells and replaced with 50 μL each sample mixture. Cells were incubated for 30 minutes at 37° C. […] Finally, 40 μL of luciferase substrate solution (20 mM Tricine, 2.67 mM MgSO4.7H2O, 0.1 mM EDTA, 33.3 mM DTT, 530 μM ATP, 270 μM acetyl CoA lithium salt, 470 μM luciferin, 5 mM NaOH, 265 μM magnesium carbonate hydroxide) was added to each well and luminescence was measured using a VICTOR3 luminometer (PerkinElmer). • 8. […]
# [3] = tested on: cells
# [4] = tested on: host IFN pathway; conditions: delivered to the host cytosol; reference 29; cited from earlier work
Structure (SMILES),host signaling pathway required for detection (type-I IFN) [1],IFN-β induction in macrophages ([2]; commercially available c-di-AMP delivered to the cytosol of murine BMMs),IFN-β inducing activity after treatment with snake venom phosphodiesterase (SVPD) ([2]; sample treated with SVPD),cell permeability [3],induction of inflammation ([3]; added to the outside of cells),activation of host IFN pathway [4]
"Nc1ncnc2c1ncn2[C@@H]1O[C@@H]2COP(=O)(O)O[C@H]3[C@@H](O)[C@H](n4cnc5c(N)ncnc54)O[C@@H]3COP(=O)(O)O[C@H]2[C@H]1O [c-di-AMP, cyclic di-adenosine monophosphate]",requires a parallel host-signaling pathway,dose-dependent response,abolished the activity,not cell permeable,does not induce inflammation,–
Nc1nc2c(ncn2[C@@H]2O[C@@H]3COP(=O)(O)O[C@H]4[C@@H](O)[C@H](n5cnc6c(=O)[nH]c(N)nc65)O[C@@H]4COP(=O)(O)O[C@H]3[C@H]2O)c(=O)[nH]1 [c-di-GMP],–,–,–,–,–,specifically activates the host IFN pathway
